# Assay results taken from patent US6900344B2, “Method of preparing alkylated salicylamides via a dicarboxylate intermediate” (Emisphere Technologies, Inc., priority 2000, dated 2005).
# Assay: solubility in DMAC
# Details: in DMAC (dimethylacetamide)
structure (smiles),measurement,value
"O=c1[nH]c(=O)c2ccccc2o1 [carsalam, 2H-1,3-benzoxazine-2,4(3H)-dione]",solubility,about 30%
